SMILES strings stand for the structures.

For this experiment, the system named is Leishmania donovani. Briefly: Antileishmanial activity against Leishmania donovani promastigotes. The format is functional, organism-based.

Take `CC(=O)c1c(O)c(C=O)c(O)c2c1O[C@]1(CC2)[C@@H]2CC[C@@H](C2)C1(C)C`: the IC50 is 4.47 µM (read-out: IC50) and 5.22 µM (read-out: pIC50 (converted)).

In the case of `CC1(C)[C@H]2CC[C@H](C2)[C@]12CCc1c(O)c(C=O)c(O)c(C=O)c1O2`, the IC50 is 4.07 µM (read-out: IC50) and 4.24 µM (read-out: pIC50 (converted)). Take `CC(C)CC(=O)c1c(O)c2c(c(C(=O)CC(C)C)c1O)O[C@]1(CC2)[C@@H]2CC[C@@H](C2)C1(C)C`: the IC50 (read-out: IC50) is above 40 µg/mL.

Turning to `CC(C)C[C@H]1C[C@@]2(CC[C@H]3C[C@@H]2C3(C)C)Oc2c(C=O)c(O)c(C=O)c(O)c21`, the IC50 by setting is: (read-out: IC50) 5.17 µM; (read-out: pIC50 (converted)) 5.18 µM. The corresponding values for `CC(C)C[C@@H]1C[C@@]2(CC[C@H]3C[C@@H]2C3(C)C)Oc2c(C=O)c(O)c(C=O)c(O)c21` are 4.14 µM and 4.14 µM. With `CC(=O)c1c(O)c(C=O)c2c(c1O)C[C@H]1C[C@H]3C[C@H](C3(C)C)[C@@]1(C)O2`, the IC50 by setting is: (read-out: IC50) 2.73 µM; (read-out: pIC50 (converted)) 2.73 µM. Regarding `CC(=O)c1c(O)c(C=O)c(O)c2c1O[C@@]1(C)[C@@H](C2)C[C@H]2C[C@@H]1C2(C)C`, the IC50 is 4.94 µM (read-out: IC50) and 4.93 µM (read-out: pIC50 (converted)). On to `CC1(C)[C@H]2C[C@@H]3Cc4c(O)c(C=O)c(O)c(C=O)c4O[C@]3(C)[C@@H]1C2`, for which the IC50 runs as follows: (read-out: IC50) 7.26 µM; (read-out: pIC50 (converted)) 7.26 µM. On to `CC(=O)c1c(O)c(C=O)c2c(c1O)CC[C@@]1(CC[C@H]3C[C@@H]1C3(C)C)O2`, for which the IC50 reads like this: (read-out: IC50) 4.65 µM; (read-out: pIC50 (converted)) 4.65 µM. `CC(=O)c1c(O)c(C=O)c(O)c2c1O[C@@]1(CC2)CC[C@H]2C[C@@H]1C2(C)C`: the IC50 was 4.65 µM (read-out: IC50) and 4.65 µM (read-out: pIC50 (converted)). With `CC1(C)[C@H]2CC[C@@]3(CCc4c(O)c(C=O)c(O)c(C=O)c4O3)[C@@H]1C2`, the IC50 (read-out: IC50) came out at 6.36 µM and the IC50 (read-out: pIC50 (converted)) is 6.35 µM. In the case of `CC(C)CC(=O)c1c(O)c2c(c(C(=O)CC(C)C)c1O)O[C@@]1(CC2)CC[C@H]2C[C@@H]1C2(C)C`, where the note is “read-out: IC50”, the IC50 is above 40 µg/mL. In the case of `CC(C)CC(=O)c1c(O)c(C=O)c2c(c1O)C[C@H]1C[C@H]3[C@@H](C[C@@]1(C)O2)C3(C)C`, the IC50 by setting is: (read-out: IC50) 0.73 µM; (read-out: pIC50 (converted)) 0.724 µM.

In the case of `CC(C)CC(=O)c1c(O)c(C=O)c(O)c2c1O[C@]1(C)C[C@@H]3[C@H](C[C@@H]1C2)C3(C)C`, the IC50 (read-out: IC50) amounted to 1.6 µM and the IC50 (read-out: pIC50 (converted)) is 1.6 µM.

`CC(=O)c1c(O)c(C=O)c2c(c1O)C[C@H]1C[C@H]3[C@@H](C[C@@]1(C)O2)C3(C)C`: the IC50 was 2.76 µM (read-out: IC50) and 2.76 µM (read-out: pIC50 (converted)). Take `CC(=O)c1c(O)c(C=O)c(O)c2c1O[C@]1(C)C[C@@H]3[C@H](C[C@@H]1C2)C3(C)C`: the IC50 is 4.07 µM (read-out: IC50) and 4.06 µM (read-out: pIC50 (converted)). The corresponding values for `CC1(C)[C@@H]2C[C@@]3(C)Oc4c(C=O)c(O)c(C=O)c(O)c4C[C@H]3C[C@@H]21` are 5.75 µM and 5.75 µM. For the compound `CC(C)CC(=O)c1c(O)c(C=O)c2c(c1O)CC[C@@]1(O2)[C@@H]2CC[C@@H](C2)C1(C)C`, the IC50 reads like this: (read-out: IC50) 0.93 µM; (read-out: pIC50 (converted)) 0.931 µM. Turning to `CC(C)CC(=O)c1c(O)c(C=O)c(O)c2c1O[C@]1(CC2)[C@@H]2CC[C@@H](C2)C1(C)C`, the IC50 is, setting by setting: (read-out: IC50) 4.07 µM; (read-out: pIC50 (converted)) 3.62 µM. The matching figures for `CC(=O)c1c(O)c(C=O)c2c(c1O)CC[C@@]1(O2)[C@@H]2CC[C@@H](C2)C1(C)C`: 1.25 µM and 1.25 µM. The corresponding values for `CC1(C)[C@H]2[C@@H]1CC[C@@H]1Cc3c(O)c(C=O)c(O)c(C=O)c3O[C@@]12C` are 5.17 µM and 6.05 µM.

Turning to `CC(C)CC(=O)c1c(O)c2c(c(C(=O)CC(C)C)c1O)O[C@]1(C)C[C@@H]3[C@H](C[C@@H]1C2)C3(C)C`, the IC50 (read-out: IC50) was above 40 µg/mL.

For the compound `CC(C)CC(=O)c1c(O)c(C=O)c2c(c1O)C[C@H]1CC[C@H]3[C@H](C3(C)C)[C@@]1(C)O2`, the IC50 runs as follows: (read-out: IC50) 0.62 µM; (read-out: pIC50 (converted)) 0.621 µM. The corresponding values for `CC(C)CC(=O)c1c(O)c(C=O)c(O)c2c1O[C@@]1(CCO)[C@@H](C2)C[C@H]2C[C@@H]1C2(C)C` are 7.68 µM and 7.69 µM.

On to `CC(C)CC(=O)c1c(O)c(C=O)c2c(c1O)C[C@H]1C[C@H]3C[C@H](C3(C)C)[C@@]1(CCO)O2`, for which the IC50 (read-out: IC50) came out at 2.28 µM and the IC50 (read-out: pIC50 (converted)) was 2.28 µM. In the case of `CC(C)CC(=O)c1c(O)c2c(c(C(=O)CC(C)C)c1O)O[C@@]1(CO)[C@@H](C2)C[C@H]2C[C@@H]1C2(C)C`, the IC50 is 6.93 µM (read-out: IC50) and 6.93 µM (read-out: pIC50 (converted)). With `CC1(C)[C@H]2C[C@@H]3Cc4c(O)c(C=O)c(O)c(C=O)c4O[C@]3(CO)[C@@H]1C2`, the IC50 (read-out: IC50) is above 40 µg/mL. For `CC(C)CC(=O)c1c(O)c(C=O)c(O)c2c1O[C@@]1(C)[C@H](CC[C@H]3[C@@H]1C3(C)C)C2`, the IC50 by setting is: (read-out: IC50) 1.42 µM; (read-out: pIC50 (converted)) 1.42 µM. With `CC(C)CC(=O)c1c(O)c(C=O)c2c(c1O)C[C@H]1C[C@H]3C[C@H](C3(C)C)[C@@]1(CO)O2`, the IC50 (read-out: IC50) came out at 4.47 µM and the IC50 (read-out: pIC50 (converted)) is 4.48 µM. The matching figures for `CC1(C)[C@H]2C[C@@H]3Cc4c(O)c(C=O)c(O)c(C=O)c4O[C@]3(CCO)[C@@H]1C2`: 6.1 µM and 6.11 µM. For `CC(C)CC(=O)c1c(O)c2c(c(C(=O)CC(C)C)c1O)O[C@@]1(C)[C@H](CC[C@H]3[C@@H]1C3(C)C)C2`, under “read-out: IC50”, the IC50 is above 40 µg/mL.

With `CC(C)CC(=O)c1c(O)c(C=O)c(O)c2c1O[C@@]1(CO)[C@@H](C2)C[C@H]2C[C@@H]1C2(C)C`, the IC50 was 7.45 µM (read-out: IC50) and 7.45 µM (read-out: pIC50 (converted)). With `CC(C)CC(=O)c1c(O)c2c(c(C(=O)CC(C)C)c1O)O[C@@]1(CCO)[C@@H](C2)C[C@H]2C[C@@H]1C2(C)C`, the IC50 (read-out: IC50) is above 40 µg/mL. As for `CC(C)CC(=O)c1c(O)c2c(c(C(=O)CC(C)C)c1O)O[C@@]1(C)[C@@H](C2)C[C@H]2C[C@@H]1C2(C)C`, the IC50 (read-out: IC50) was above 40 µg/mL. Take `CC(C)CC(=O)c1c(O)c(C=O)c(O)c2c1O[C@@]1(C)[C@@H](C2)C[C@H]2C[C@@H]1C2(C)C` [EUGLOBAL G1]: the IC50 was 1.84 µM (read-out: IC50) and 1.84 µM (read-out: pIC50 (converted)).

For the compound `CC(C)CC(=O)c1c(O)c(C=O)c2c(c1O)C[C@H]1C[C@H]3C[C@H](C3(C)C)[C@@]1(C)O2` [EUGLOBAL G2], the IC50 runs as follows: (read-out: IC50) 0.93 µM; (read-out: pIC50 (converted)) 0.931 µM. For the compound `CC(C)CC(=O)c1c(O)c(C=O)c2c(c1O)CC[C@@]1(CC[C@H]3C[C@@H]1C3(C)C)O2` [EUGLOBAL G3], the IC50 (read-out: IC50) was found to be 1 µM and the IC50 (read-out: pIC50 (converted)) was 1.01 µM. The corresponding values for `CC(C)CC(=O)c1c(O)c(C=O)c(O)c2c1O[C@@]1(CC2)CC[C@H]2C[C@@H]1C2(C)C` [EUGLOBAL G4] are 3.1 µM and 3.1 µM.

For the origin of these results see ChEMBL document CHEMBL1800040, “Quantitative structure-activity relationship study of phloroglucinol-terpene adducts as anti-leishmanial agents” (Bioorg Med Chem Lett, 2011).
